Structures are written as SMILES.

This note sets out measurements from patent US4407804A, “Analgesic mixture of nalbuphine and indomethacin” (E. I. Du Pont de Nemours and Company, priority 1982, dated 1983).

In the assay the test system is phenyl-p-benzoquinone induced writhing in mice. In words: Mouse antiphenylquinone (phenyl-p-benzoquinone induced) writhing test, oral. The following applies: for % mice blocked: 40 min.

Experimental: Male CF1 mice obtained from Charles River Breeding Laboratories, fasted for 16-22 hours and weighing 18-22 g at the time of testing are used throughout. All mice are dosed sequentially by the oral route with solutions of indomethacin and/or of nalbuphine hydrochloride. A dosing volume of 10 ml/kg is used for each sequential solution. […] All doses are coded and the test is performed under a code not known to the observer.
A stock solution of indomethacin is prepared by dissolving dry indomethacin powder with an aqueous vehicle containing 2% by volume of Tween 80®, a pharmacological dispersant manufactured by Fisher Scientific Company and containing 100% polysorbate 80. All dosing solutions are prepared by dilution of the stock solution with the 2% Tween 80® vehicle; the vehicle control is 2% Tween 80®. All solutions are prepared fresh daily.
Stock solutions of nalbuphine HCl are prepared by dissolving dry nalbuphine hydrochloride powder with distilled water. All dosing solutions are prepared by dilution of the stock solution with distilled water; the vehicle control is distilled water.
As indicated above, the standard procedure based upon the prevention of phenyl-p-benzoquinone induced writhing in mice is utilized to detect and quantify the analgetic activity of compositions containing nalbuphine and indomethacin.
Mice, intubated with various doses of nalbuphine hydrochloride, indomethacin, combined doses of nalbuphine hydrochloride and indomethacin,or vehicle, are injected intraperitoneally with a standard challenge dose of phenyl-p-benzoquinone 5 minutes prior to the designated observation period. […] For scoring purposes a "writhe" is indicated by whole body stretching or contraction of the abdomen; mice are observed 10 minutes for the presence or absence of writhing beginning 5 minutes after receiving the phenyl-p-benzoquinone dose. Each mouse is used only once, then discarded. […] This dosage as described herein is referred to as the ED50.
In order to study the interaction between nalbuphine and indomethacin, 5 precise dosage ratios of nalbuphine hydrochloride and indomethacin were selected. Four or five coded doses of each selected combination were studied for analgesic effectiveness at 40 minutes using an experimental design which permits coding and complete randomization of the separate dosage forms tested. Altogether 35 separate dosage forms are used and each form is represented in each experimental session. The experiments are continued by running experimental sessions with an equal number of mice per group being tested until the total number, N, of mice tested per group is 60.

For `COc1ccc2c(c1)c(CC(=O)O)c(C)n2C(=O)c1ccc(Cl)cc1` [Indomethacin, 1-(p-chlorobenzoyl)-5-methoxy-2-methylindole-3-acetic acid], the “% mice blocked” value is 18.3% (indomethacin 0.398 mg/kg, nalbuphine HCl 0); 30.0% (indomethacin 0.795 mg/kg, nalbuphine HCl 0); 78.3% (indomethacin 1.59 mg/kg, nalbuphine HCl 0); 85.0% (indomethacin 3.18 mg/kg, nalbuphine HCl 0). Where the note is “mouse, N=60 mice/dose, indomethacin alone or as component of the fixed-ratio combination”, the ED50 – broadly, the dose that gives a 50% effect, or the effect in half of the subjects – at 40 min, Indomethacin (amount of indomethacin in the ED50 dose) was 1.08 mg/kg.

Consider `Oc1ccc2c3c1O[C@H]1[C@@H](O)CC[C@@]4(O)[C@@H](C2)N(CC2CCC2)CC[C@]314` [Nalbuphine, (-)-17-(cyclobutylmethyl)-4,5α-epoxymorphinan-3,6α,14-triol], for which the “% mice blocked” value (nalbuphine HCl 5.45 mg/kg, indomethacin 0) turned out to be 10.0%; the “% mice blocked” value (nalbuphine HCl 10.9 mg/kg, indomethacin 0) turned out to be 13.3%; the “% mice blocked” value (nalbuphine HCl 21.8 mg/kg, indomethacin 0) is given as 46.7%; the “% mice blocked” value (nalbuphine HCl 43.6 mg/kg, indomethacin 0) is 66.7%; the “% mice blocked” value (nalbuphine HCl 87.2 mg/kg, indomethacin 0) is 66.7%. Also, the median effective dose (ED50) at 40 min, Nalbuphine HCl (amount of nalbuphine HCl in the ED50 dose) (mouse, N=60 mice/dose, nalbuphine HCl alone or as component of the fixed-ratio combination) turned out to be 35.5 mg/kg.
